We go through three compounds from article PMC9047515 (Biochemistry, 2022).

Experiment in all cases: stopped-flow absorption titration
Holding throughout (type): binding

Experiment [1] addresses T1, BesC (Streptantibioticus cattleyicolor, UniProt F8JJ25).
In experiment [2] the target is T1, BesC. The source holds these as a separate data set.
Experiment [3] concerns the target T1, BesC. The source holds these as a separate data set.

Read-outs that look alike come from different tables or passages of the source.

T1 sequence (F8JJ25 whole entry): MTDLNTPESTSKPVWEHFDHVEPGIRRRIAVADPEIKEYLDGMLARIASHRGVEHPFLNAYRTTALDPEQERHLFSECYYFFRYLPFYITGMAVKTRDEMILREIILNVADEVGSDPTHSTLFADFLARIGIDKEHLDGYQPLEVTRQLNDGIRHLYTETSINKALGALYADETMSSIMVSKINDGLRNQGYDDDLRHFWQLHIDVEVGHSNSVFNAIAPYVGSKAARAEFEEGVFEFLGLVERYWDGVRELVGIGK

The compound `NCCSC[C@H](N)C(=O)O` [4-thia-L-Lys, S-(2-aminoethyl)-L-cysteine] yielded a Kd on BesC [1] of less than 30 µM. Take `N[C@@H](CCCCO)C(=O)O` [6-OH-L-Nle]: the Kd at BesC [2] is 10000 ± 1000 µM. Turning to `NCCCC[C@H](N)C(=O)O` [L-Lys], the affinity at BesC [3], expressed as Kd, was 300 ± 100 µM.

For orientation: Kd means the free concentration of one partner at which half of the binding sites on the other are occupied at equilibrium, for simple one-to-one binding.
